Test results as given in patent publication US20160166569A1, “METHOD FOR TREATING SKIN THICKENING” (GALDERMA RESEARCH & DEVELOPMENT, priority 2013, published 2016).
Like-named read-outs stand apart in the source and are kept apart here.

Tested on: UV-induced skin thickening
Details: for other skin disorders induced by UV-irradiation (low grade of erythema or flaking, white raised area on skin, wrinkling): compared to vehicle control
Procedure: Albino hairless SKHI-hr mice (36/sex/group) were treated for 40 weeks with UVR and brimonidine gel or vehicle according to the design in Table 11. […] Topical treatments were performed approximately one hour before UVR on Monday, Wednesday and Friday of each week and approximately one hour after UVR Tuesday and Thursday of each week.
N/N=Total number of observations/number of mice with observation

With `Brc1c(NC2=NCCN2)ccc2nccnc12` [brimonidine, (5-bromo-quinoxalin-6-yl)-(4,5-dihydro-1H-imidazol-2-yl)-amine] the “UV-induced skin thickness, statistical effect” value (0.18% (w/w) topical) was “did not statistically reduce”, the “incidence of skin thickening compared to the UV control group” value (0.18% (w/w) topical) was “observably lower” and the “UV-induced skin thickness, statistical effect compared to the UV control group” value (1% (w/w) topical) was “statistically reduced”. The “other skin disorders induced by UV-irradiation (low grade of erythema or flaking, white raised area on skin, wrinkling)” value (1% (w/w) topical) was “reduced”, the “UV-induced skin thickness, statistical effect compared to the UV control group” value (2% (w/w) topical) was “statistically reduced” and the “other skin disorders induced by UV-irradiation (low grade of erythema or flaking, white raised area on skin, wrinkling)” value (2% (w/w) topical) was “reduced”. The “skin thickening or other skin disorders” value (mice exposed to UV radiation, summary statement) was “significant reduction” and the UV-induced skin thickening (topical application at 0.18%, 1% and 2% (w/w), UVR 600 RBU/week) was “dose-dependent reduction”.
